# Experimental data reported in US12447153B2, “HER2 mutation inhibitors” (Array BioPharma Inc., priority 2021, dated 2025).
# What was measured:
# [1] = biological target: ErbB2 WT (Homo sapiens (Human), UniProt P04626); experiment: ErbB Enzyme Assay (HTRF KinEASE-TK), Assay 2; type: biochemical
# [2] = biological target: EGFR (Homo sapiens (Human), UniProt P00533); experiment: ErbB Enzyme Assay (HTRF KinEASE-TK), Assay 3; type: biochemical
# [3] = biological target: ErbB2 with Exon 20 YVMA insertion (HER2-YVMA) (Homo sapiens (Human), UniProt P04626, INS775YVMA); experiment: Cellular Phosphorylation Assay, Assay 4 (constitutive ErbB2 phosphorylation, NIH 3T3 cells); type: cell-based
# [4] = biological target: EGFR wild type (EGFR WT) (Homo sapiens (Human), UniProt P00533); experiment: Cellular Phosphorylation Assay, Assay 5 (EGF-stimulated EGFR phosphorylation, NIH 3T3 cells); type: cell-based
# [5] = biological target: BCRP (Homo sapiens (Human), UniProt Q9UNQ0); experiment: BCRP MDCKII efflux assay (Assay 7); type: in vitro ADME; settings: dog; efflux ratio Papp(B-A)/Papp(A-B), BCRP MDCKII cells; read-out: Assay 7 Pe Ratio
# Protocol: Assay conditions included with and without the BCRP-specific inhibitor, KO143, at a concentration of 0.3 μM to ascertain the contribution of BCRP to the efflux value of the test compound.
# Final organic concentration in the assay was 1%.
# [6] = cellular ErbB2 YVMA phosphorylation
# [7] = cellular EGFR WT phosphorylation, EGF-stimulated
# Chain of BCRP (Q9UNQ0 whole entry): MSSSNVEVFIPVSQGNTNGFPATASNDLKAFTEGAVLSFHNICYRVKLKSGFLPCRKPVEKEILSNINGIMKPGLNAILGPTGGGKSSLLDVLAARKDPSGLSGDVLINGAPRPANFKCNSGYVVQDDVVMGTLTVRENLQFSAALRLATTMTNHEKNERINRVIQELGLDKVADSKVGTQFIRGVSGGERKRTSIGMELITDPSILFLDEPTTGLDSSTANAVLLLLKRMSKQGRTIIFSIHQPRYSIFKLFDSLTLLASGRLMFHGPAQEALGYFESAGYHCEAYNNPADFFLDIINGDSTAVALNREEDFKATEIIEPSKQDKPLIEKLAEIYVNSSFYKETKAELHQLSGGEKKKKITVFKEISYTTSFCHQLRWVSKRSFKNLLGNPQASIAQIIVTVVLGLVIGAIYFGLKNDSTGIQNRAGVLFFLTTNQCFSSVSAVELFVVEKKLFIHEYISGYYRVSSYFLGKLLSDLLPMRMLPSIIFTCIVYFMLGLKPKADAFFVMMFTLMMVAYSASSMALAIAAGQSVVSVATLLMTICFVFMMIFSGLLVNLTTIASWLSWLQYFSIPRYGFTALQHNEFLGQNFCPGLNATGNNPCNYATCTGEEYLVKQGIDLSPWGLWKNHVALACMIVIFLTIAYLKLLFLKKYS
# Chain of EGFR wild type (EGFR WT) (P00533 25-1210): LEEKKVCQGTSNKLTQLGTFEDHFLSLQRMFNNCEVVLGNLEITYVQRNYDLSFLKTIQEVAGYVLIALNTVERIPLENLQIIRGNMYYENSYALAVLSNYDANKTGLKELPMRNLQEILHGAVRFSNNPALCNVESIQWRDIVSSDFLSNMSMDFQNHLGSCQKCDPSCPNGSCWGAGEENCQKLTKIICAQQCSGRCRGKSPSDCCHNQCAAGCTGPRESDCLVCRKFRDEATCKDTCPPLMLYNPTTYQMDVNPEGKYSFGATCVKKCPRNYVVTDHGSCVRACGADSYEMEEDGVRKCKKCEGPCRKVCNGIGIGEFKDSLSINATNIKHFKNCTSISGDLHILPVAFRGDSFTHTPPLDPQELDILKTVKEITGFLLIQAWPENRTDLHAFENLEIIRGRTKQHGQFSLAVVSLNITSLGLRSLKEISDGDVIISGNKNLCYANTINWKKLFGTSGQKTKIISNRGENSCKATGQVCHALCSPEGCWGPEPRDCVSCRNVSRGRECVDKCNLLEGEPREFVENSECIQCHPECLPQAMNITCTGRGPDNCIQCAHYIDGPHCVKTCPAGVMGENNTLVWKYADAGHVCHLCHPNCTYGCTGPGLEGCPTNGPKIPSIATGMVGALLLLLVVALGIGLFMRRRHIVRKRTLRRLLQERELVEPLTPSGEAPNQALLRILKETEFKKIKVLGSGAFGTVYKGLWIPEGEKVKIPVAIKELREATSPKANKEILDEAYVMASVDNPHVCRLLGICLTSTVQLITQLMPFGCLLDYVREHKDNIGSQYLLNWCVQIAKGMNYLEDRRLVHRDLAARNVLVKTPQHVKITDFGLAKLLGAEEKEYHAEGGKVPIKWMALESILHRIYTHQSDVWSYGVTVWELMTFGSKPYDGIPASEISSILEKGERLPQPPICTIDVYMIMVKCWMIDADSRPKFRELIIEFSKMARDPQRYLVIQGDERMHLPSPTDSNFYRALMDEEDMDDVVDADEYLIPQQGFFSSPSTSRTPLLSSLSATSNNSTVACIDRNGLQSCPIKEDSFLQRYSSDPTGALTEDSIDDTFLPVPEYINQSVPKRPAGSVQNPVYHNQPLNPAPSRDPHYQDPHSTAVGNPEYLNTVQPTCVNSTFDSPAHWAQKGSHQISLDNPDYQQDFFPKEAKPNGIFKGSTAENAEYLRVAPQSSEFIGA
# Chain of EGFR (P00533 25-1210): as above
# Chain of ErbB2 WT (P04626 23-1255): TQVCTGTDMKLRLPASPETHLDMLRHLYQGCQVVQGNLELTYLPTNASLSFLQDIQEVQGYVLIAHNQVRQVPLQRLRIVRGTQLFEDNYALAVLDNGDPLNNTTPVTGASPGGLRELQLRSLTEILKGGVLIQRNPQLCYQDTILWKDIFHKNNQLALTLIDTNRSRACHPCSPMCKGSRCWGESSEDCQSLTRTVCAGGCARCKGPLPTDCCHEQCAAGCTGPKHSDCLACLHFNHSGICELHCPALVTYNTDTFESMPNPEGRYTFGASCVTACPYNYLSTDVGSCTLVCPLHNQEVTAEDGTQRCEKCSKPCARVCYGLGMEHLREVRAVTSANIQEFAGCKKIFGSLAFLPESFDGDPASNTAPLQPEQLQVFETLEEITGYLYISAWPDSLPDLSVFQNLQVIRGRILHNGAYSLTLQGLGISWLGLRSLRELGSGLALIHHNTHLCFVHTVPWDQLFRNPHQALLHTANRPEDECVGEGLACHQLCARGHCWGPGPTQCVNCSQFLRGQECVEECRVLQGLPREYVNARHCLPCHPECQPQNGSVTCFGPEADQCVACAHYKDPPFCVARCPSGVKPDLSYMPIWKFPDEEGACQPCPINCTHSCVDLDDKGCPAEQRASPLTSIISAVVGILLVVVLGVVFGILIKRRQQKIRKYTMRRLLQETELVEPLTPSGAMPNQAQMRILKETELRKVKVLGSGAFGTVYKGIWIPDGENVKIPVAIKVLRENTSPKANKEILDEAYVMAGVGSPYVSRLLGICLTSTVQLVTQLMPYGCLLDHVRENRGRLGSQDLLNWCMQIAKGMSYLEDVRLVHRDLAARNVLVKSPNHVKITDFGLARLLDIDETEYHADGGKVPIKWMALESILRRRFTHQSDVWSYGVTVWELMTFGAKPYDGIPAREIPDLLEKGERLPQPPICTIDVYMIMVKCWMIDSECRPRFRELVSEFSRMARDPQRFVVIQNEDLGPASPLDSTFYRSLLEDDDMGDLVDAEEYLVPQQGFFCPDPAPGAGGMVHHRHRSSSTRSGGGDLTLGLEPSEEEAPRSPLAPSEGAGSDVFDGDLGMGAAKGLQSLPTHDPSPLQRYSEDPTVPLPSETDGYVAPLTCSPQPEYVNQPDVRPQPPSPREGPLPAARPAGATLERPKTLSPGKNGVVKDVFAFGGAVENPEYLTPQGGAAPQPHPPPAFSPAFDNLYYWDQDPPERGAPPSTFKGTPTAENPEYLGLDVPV
Compound,IC50 ([1]; ErbB2 WT enzyme assay),IC50 ([2]; EGFR enzyme assay),"IC50 [3, 6]","IC50 [4, 7]","efflux ratio at 2 h, 1 µM [5]",IC50 ([1]; ErbB2 WT enzyme),IC50 ([2]; EGFR enzyme),IC50 ([3]; ErbB2 YVMA phosphorylation),IC50 ([4]; EGF-stimulated EGFR WT phosphorylation)
C=CC(=O)N1C2CCC1CN(c1ccc3ncnc(Nc4cc(Cl)c(Oc5ccn6ncnc6c5)cc4F)c3n1)C2 [Example 434],20.8 nM,1230 nM,9.8 nM,3490 nM,13.6,–,–,–,–
C=CC(=O)N1CC2CCC(C1)N2c1ccc2ncnc(Nc3ccc(Oc4ccn5ncnc5c4)c(C)c3F)c2n1 [Example 455],4.1 nM,87.3 nM,4.8 nM,193 nM,9.6,–,–,–,–
C=CC(=O)N1C2CC1CN(c1ccc3ncnc(Nc4ccc(Oc5ccc6c(c5)ncn6C)c(Cl)c4F)c3n1)C2 [Example 325],21.3 nM,255 nM,11.6 nM,556 nM,10.3,–,–,–,–
C=CC(=O)N1CCN(c2ccc3ncnc(Nc4ccc(Oc5cnc6c(c5)ncn6C)c(C)c4F)c3n2)C[C@@H]1C(F)F (racemic) [Example 300],11.3 nM,277 nM,9.5 nM,653 nM,5.8,–,–,–,–
C=CC(=O)N1C2CCC1CN(c1ccc3ncnc(Nc4cc(C)c(Oc5ccn6ncnc6c5)cc4F)c3n1)C2 [Example 443],90.6 nM,4150 nM,25.5 nM,2820 nM,10,–,–,–,–
"C=CC(=O)N1CCC(c2ccc3ncnc(Nc4ccc(Oc5ccc6c(c5)ncn6C)c(C)c4)c3n2)CC1 [Example 34, 1-(4-(4-((3-methyl-4-((1-methyl-1H-benzo[d]imidazol-5-yl)oxy)phenyl)amino)pyrido[3,2-d]pyrimidin-6-yl)piperidin-1-yl)prop-2-en-1-one]",–,–,–,–,6.7,28.7 nM,6870 nM,9.5 nM,≥ 5000 nM
C=CC(=O)N1CCN(c2ccc3ncnc(Nc4ccc(Oc5cc(F)c6c(c5)ncn6C)c(C)c4)c3n2)CC1 [Example 276],10 nM,350 nM,6.7 nM,302 nM,25.2,–,–,–,–
C=CC(=O)N1C[C@@H]2C[C@H]1C[C@H]2c1ccc2ncnc(Nc3cc(C)c(Oc4ccc5c(c4)ncn5C)cc3F)c2n1 [Example 375],43.6 nM,1030 nM,19 nM,2020 nM,4,–,–,–,–
C=CC(=O)N1CCN(c2ccc3ncnc(Nc4cc(C)c(Oc5cnc6c(c5)ncn6C)cc4F)c3n2)CC12CC2 [Example 354],31.6 nM,≥ 10000 nM,8.8 nM,≥ 5000 nM,13.4,–,–,–,–

# Further lines, results first:
IC50 ([1]; ErbB2 WT enzyme assay),IC50 ([2]; EGFR enzyme assay),"IC50 [3, 6]","IC50 [4, 7]","efflux ratio at 2 h, 1 µM [5]",IC50 ([1]; ErbB2 WT enzyme),IC50 ([2]; EGFR enzyme),IC50 ([3]; ErbB2 YVMA phosphorylation),IC50 ([4]; EGF-stimulated EGFR WT phosphorylation),Compound
22.4 nM,2870 nM,53.7 nM,≥ 5000 nM,26,–,–,–,–,C=CC(=O)N1CC2(CCN2c2ccc3ncnc(Nc4ccc(Oc5ccn6ncnc6c5)c(C)c4F)c3n2)C1 [Example 289]
75.5 nM,≥ 10000 nM,71 nM,≥ 5000 nM,15.6,–,–,–,–,C=CC(=O)N1C[C@H]2C[C@@H]1CN(c1ccc3ncnc(Nc4cc(Cl)c(Oc5ccn6ncnc6c5)cc4F)c3n1)C2 [Example 292]
45.8 nM,8970 nM,29.8 nM,1070 nM,1.7,–,–,–,–,C=CC(=O)N1CCN(c2ccc3ncnc(Nc4ccc(Oc5ccn6ncnc6c5)c(C)c4F)c3n2)C[C@H]1C(C)C [Example 267]
156 nM,4780 nM,33.8 nM,≥ 5000 nM,11.8,–,–,–,–,C=CC(=O)N1C[C@@H]2CC(c3ccc4ncnc(Nc5ccc(Oc6ccn7ncnc7c6)c(C)c5F)c4n3)C[C@H]1C2 (stereo partly shown) [Example 268]
47.3 nM,1380 nM,29.8 nM,2050 nM,12.8,–,–,–,–,C=CC(=O)N1C[C@@H]2CN(c3ccc4ncnc(Nc5ccc(Oc6ccn7ncnc7c6)c(C)c5F)c4n3)C[C@@H]21 [Example 318]
